This is an account of results in US6890940B2, “Bis(2-aryl-5-pyridyl) derivatives” (Kowa Co., Ltd., priority 2001, dated 2005).

For data set [1], the system named is IgE antibody production. Briefly: Evaluation of IgE antibody production inhibiting activity (mouse spleen B cells stimulated with LPS and IL-4, IgE in supernatant by ELISA). The conditions noted are these: B-cell; mouse (Balb/C) spleen B cells, LPS + mouse IL-4, drug added Day 1, IgE in culture supernatant by ELISA. It counts as cell-based. On the procedure: Test 1 (Evaluation of IgE Antibody Production Inhibiting Activity)
From a mouse (Balb/C, male, 8 weeks old), the spleen was enucleated. The spleen was shredded in 10% FBS/RPMI 1640, and was then disintegrated into single cells through a 70-mesh screen. Those single cells were hemolyzed with Gey's solution, and using RPMI 1640 medium/25 mM HEPES/0.3% BSA, a spleen cell suspension (1×10^7 cells/mL) was prepared. After an aliquot of the suspension was reacted with a rat anti-mouse Thy-1.2 monoclonal antibody (product of Cedarlane Laboratories Limited) at 4° C. for 1 hour, centrifugation was conducted. Precipitated cells were suspended again (1×10^7 cells/mL, RPMI/HEPES/BSA). After the suspension was next reacted with a low-cytotoxic rabbit complement (product of Cedarlane Laboratories Limited) at 37° C. for 1 hour, dead cells were removed by specific gravity centrifugation using Lympholyte M (product of Cedarlane Laboratories Limited) so that a B cell fraction was obtained as viable cells. […]
The IgE antibody production inhibiting activity of each drug was calculated by adding the drug Day 1 of the incubation and assaying the quantity of IgE in the culture supernatant by ELISA after the incubation.

Data set [2] in a line: Solubility of each compound in water. It counts as physicochemical. The text has this:
Further, the solubility (%) of each compound in water was also estimated.

Data set [3] in a line: Solubility of each compound in water. It counts as physicochemical. The conditions noted are these: in 1M hydrochloric acid (footnote *).

Structures can show the parent of a compound that is named as a salt. Where two headings read alike, the source gives them in different places. Marks after values point to notes of the source that are not given here.

As for `COc1cc(-c2ccc(N(C)CCCN(C)c3ccc(-c4cc(OC)c(OC)c(OC)c4)nc3)cn2)cc(OC)c1OC` [Example 37, N,N′-Bis[2-(3,4,5-trimethoxyphenyl)-5-pyridyl]-N,N′-dimethyl-1,3-propanediamine dimethanesulfonate], the IC50 in data set [1] stood at 100 nM. The compound further had a Solubility in data set [2] of 10%.

Take `COc1cc(-c2ccc(N(C)CC(C)(C)CN(C)c3ccc(-c4cc(OC)c(OC)c(OC)c4)nc3)cn2)cc(OC)c1OC` [Example 39, N,N′-Bis[2-(3,4,5-trimethoxyphenyl)-5-pyridyl]-N,N′,2,2-tetramethyl-1,3-propanediamine dimethanesulfonate]: in data set [1], the IC50 amounted to 80 nM. In addition, the Solubility in data set [2] is reported as 10%.

With `COc1cc(-c2ccc(N(C)CCN(C)CCN(C)c3ccc(-c4cc(OC)c(OC)c(OC)c4)nc3)cn2)cc(OC)c1OC` [Example 42, N,N-Bis[N-[2-(3,4,5-trimethoxyphenyl)-5-pyridyl]-N-methyl-2-aminoethyl]methylamine trihydrochloride.], the IC50 in data set [1] amounted to 100 nM. Besides, the Solubility in data set [2] was 10%.

Take `COc1cc(-c2ccc(N(C)CC(O)CN(C)c3ccc(-c4cc(OC)c(OC)c(OC)c4)nc3)cn2)cc(OC)c1OC` [Example 41, 2-hydroxy-N,N′-bis[2-(3,4,5-trimethoxyphenyl)-5-pyridyl]-N,N′-dimethyl-1,3-propanediamine]: the IC50 in data set [1] was 50 nM. Also, the Solubility in data set [3] is on record as 0.1* %.

Regarding `COc1cc(-c2ccc(N(C)CCN(C)c3ccc(-c4cc(OC)c(OC)c(OC)c4)nc3)cn2)cc(OC)c1OC` [Example 7, N,N′-Bis[2-(3,4,5-trimethoxyphenyl)-5-pyridyl]-N,N′-dimethylethylenediamine dimethanesulfonate], the IC50 in data set [1] turned out to be 40 nM. The compound further gave a Solubility in data set [2] of 5%.

With `COc1cc(-c2ccc(N(C)CCCN(C)CCCN(C)c3ccc(-c4cc(OC)c(OC)c(OC)c4)nc3)cn2)cc(OC)c1OC` [Example 43, N,N-Bis[N-[2-(3,4,5-trimethoxyphenyl)-5-pyridyl]-N-methyl-3-aminopropyl]methylamine], in data set [1], the IC50 amounted to 100 nM. The Solubility in data set [3] is 10* %.

Regarding `COc1cc(-c2ccc(N(C)CCN(C)c3ccc(-c4cc(OC)c(O)c(OC)c4)nc3)cn2)cc(OC)c1O` [Example 14, N,N′-Bis[2-(4-hydroxy-3,5-dimethoxyphenyl)-5-pyridyl]-N,N′-dimethylethylenediamine dimethanesulfonate], the IC50 in data set [1] was 40 nM. The Solubility in data set [2] was found to be 0.1%.

For `CCN(CCN(CC)c1ccc(-c2cc(OC)c(OC)c(OC)c2)nc1)c1ccc(-c2cc(OC)c(OC)c(OC)c2)nc1` [Example 36, N,N′-Bis[2-(3,4,5-trimethoxyphenyl)-5-pyridyl]-N,N′-diethylethylenediamine dimethanesulfonate], in data set [1], the half-inhibitory concentration (IC50) worked out at 30 nM. Besides, the Solubility in data set [2] amounted to 10%.

With `COc1cc(-c2ccc(N3CCN(c4ccc(-c5cc(OC)c(OC)c(OC)c5)nc4)C(CN(C)C)C3)cn2)cc(OC)c1OC` (stereo not drawn) [Example 47, 2-(Dimethylamino)methyl-1,4-bis[2-(,3,4,5-trimethoxyphenyl)-5-pyridyl]piperazine trihydrochloride], in data set [1], the IC50 stood at 50 nM. The same compound yielded a Solubility in data set [2] of 0.1%.

Turning to `COc1cc(-c2ccc(N(C)CCCN(C)CCCN(C)c3ccc(-c4cc(OC)c(OCC(F)(F)F)c(OC)c4)nc3)cn2)cc(OC)c1OCC(F)(F)F` [Example 57, N,N-Bis[N-[2-(3,5-dimethoxy-4-(2,2,2-trifluoroethoxy)phenyl]-5-pyridyl]-N-methyl-3-aminopropyl]methylamine trihydrochloride], the IC50 in data set [1] worked out at 100 nM. The Solubility in data set [2] was 1%.

As to `COc1cc(-c2ccc(N3CCCN(c4ccc(-c5cc(OC)c(OC)c(OC)c5)nc4)CC3)cn2)cc(OC)c1OC` [Example 30, 1,4-Bis[2-(3,4,5-trimethoxyphenyl)-5-pyridyl]hexahydro-1,4-diazepine dimethanesulfonate], the IC50 in data set [1] was determined as 100 nM. The Solubility in data set [2] is 0.1%.

Consider `COc1cc(-c2ccc(NCCOCCNc3ccc(-c4cc(OC)c(OC)c(OC)c4)nc3)cn2)cc(OC)c1OC` [Example 44, Bis[N-[2-(3,4,5-trimethoxyphenyl)-5-pyridyl]-2-aminoethyl]ether dimethanesulfonate], for which the IC50 in data set [1] is 100 nM. Besides, in data set [2], the Solubility was 10%.
